Holding throughout (format): cell-based, Caenorhabditis elegans
The test system of one experiment is WT sperm. The experiment can be described thus: in vitro sperm crawling on glass slides after chemical activation, wild type. Particulars: n=7. The procedure: (§1) Epifluorescence and Nomarski analyses were performed on a Zeiss Axioplan2 imaging system equipped with 10×, 63× (NA 1.4), 100× (NA 1.4) objectives and a Photometrics Cascade 512B CCD camera using Metamorph software. 3D deconvolution of Z-stacks of epifluorescent image were performed by AutoQuantX program (MediaCybernetics). Confocal images were collected using a 510 LSM META ZEISS. Optical sections were collected between 0.4-1.0 μm and projected as Z-series that were stored as TIFF files and manipulated using Adobe PhotoShopTM. Worms were anesthetized with 1 mM levamisole, mounted on agar pads and maintained at room temperature. For time-lapse microscopy of sperm motility, Nomarski images were taken every 15 seconds for up to 15 minutes. Neuronal images shown in figures are projected epifluorescent Z-stacks af[…] deconvolution except for FIGS. 2C and 2G, which are projected Z-stacks of confocal sections. For electron microscopy, sperm were prepared as known in the art, except that the samples were embedded in LX112 (Ladd Research Industries Inc., Burlington, Va.). To isolate spermatids, virgin L4 males were isolated for 2-3 days in 20 degrees and cut with a 25g needle on a glass slide in Sperm Media (SM) pH 7.9 with 10 mM Dextrose. For in vitro activation, 20 ug/ml of Pronase or 100 nM monensin (for in vitro sperm crawling experiments) was added to SM as described in [21]. […]

In a further experiment the test system is my15 sperm. The experiment can be described thus: in vitro sperm crawling on glass slides after chemical activation, cil-1(my15) mutant. Conditions: isolated my15 sperm. As for the experimental part:
as §1

The next experiment has as its system WT spermatids. The experiment can be described thus: in vitro sperm activation of isolated male spermatids, wild type. Conditions: of 1, 10, 100 nM tested. As for the experimental part: (§2) To isolate spermatids, virgin L4 males were isolated for 2-3 days in 20 degrees and cut with a 25g needle on a glass slide in Sperm Media (SM) pH 7.9 with 10 mM Dextrose. For in vitro activation, 20 ug/ml of Pronase or 100 nM monensin (for in vitro sperm crawling experiments) was added to SM as described in [21]. For wortmannin treatment, a 100× wortmannin stock solution in DMSO was added to reach the final concentration of 100 nM into SM. During sperm activation, a round spermatid develops into a motile spermatozoon with a pseudopod (FIG. 16A). This process can be mimicked in vitro by chemical activators such as the ionophore monensin or Pronase. Within 15 min of Pronase application, the majority of WT male spermatids (63.4%, n=347) extend pseudopods (FIGS. 16B and 16B′), and the average length of spermatozoa is 8.13±1.11 μm (±standard deviation [SD], n=95) (FIG. 16B′). […] The diameter of my15 spermatids is also slightly smaller (6.22±0.54 μm, n=136) than WT (6.73±0.65 μm, n=110, p=8.08E-07). In vivo sperm activation defects were observed also in my15 hermaphrodites. […] Thus, cil-1 positively regulates sperm activation in vitro and in vivo. […] To this end, 1 nM, 10 nM, and 100 nM wortmannin, a pharmacological inhibitor of PI 3-kinases that produce PI(3,4,5)P3 from PI(4,5)P2 [27], were applied to WT and my15 spermatids.

A further experiment deals with my15 spermatids. The experiment can be described thus: in vitro sperm activation of isolated male spermatids, cil-1(my15) mutant. Conditions: 100 nM. As for the experimental part:
as §2

SMILES strings stand for the structures.

Take `CC[C@@]1([C@@H]2O[C@@H]([C@H]3O[C@@](O)(CO)[C@H](C)C[C@@H]3C)C[C@@H]2C)CC[C@H]([C@]2(C)CC[C@]3(C[C@H](O)[C@@H](C)[C@@H]([C@@H](C)[C@@H](OC)[C@H](C)C(=O)O)O3)O2)O1` [monensin]: the sperm crawl rate in the experiment on WT sperm was determined as 0.33±0.04 μm/s. Further, in the experiment on my15 sperm, the sperm motility result is given as “immotile”.

Regarding `COC[C@H]1OC(=O)c2coc3c2[C@@]1(C)C1=C(C3=O)[C@@H]2CCC(=O)[C@@]2(C)C[C@H]1OC(C)=O` [wortmannin], the “most effective concentration for in vitro activation” value in the experiment with WT spermatids is given as 100 nM. In addition, the “activation of male-derived sperm” value with my15 spermatids was “not activated”.

Values taken from patent publication US20110081296A1, “SYSTEMS AND METHODS FOR IDENTIFICATION OF CILIOPATHY THERAPEUTICS” (RUTGERS, THE STATE UNIVERSITY OF NEW JERSEY, priority 2009, published 2011).
